Assay results from PMC10786919, “Design-rules for stapled peptides with in vivo activity and their application to Mdm2/X antagonists” (Nature Communications, 2024).
Values after ≈ are worked out from the molar mass of the structure shown. Like-named read-outs stand apart in the source and are kept apart here. Positions of bridges follow the written chain, without caps; N, C: chain ends. Non-standard residues stand in square brackets, D forms with d. Residues, ends and D or L forms follow the SMILES beside them. Lys(N3) = [N-]=[N+]=NCCCC[C@H](N)C(=O)O; R8 = C=CCCCCCC[C@@](C)(N)C(=O)O; Cba = N[C@@H](CC1CCC1)C(=O)O; S5 = C=CCCC[C@](C)(N)C(=O)O; Aib = CC(C)(N)C(=O)O; βAla = NCCC(=O)O

Columns and labels:
[1] = Lactate dehydrogenase (LDH) release assay; assay type: cell-based
How it was run: (§1)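 Membrane damage measured as lactate dehydrogenase release (CytoTox-ONE kit) from p53-responsive β-lactamase reporter HCT116 cells plated at 8000 per well. Final DMSO 0.5%; geometric mean reported from a minimum of three biological replicates.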

[2] = system: CellSensor p53RE-bla HCT-116 Cell Line; conditions: 72 h
Method: (§2) The medium for CellSensor™ p53RE-bla HCT-116 cells was McCoy’s 5 A Medium (GIBCO16600-002) supplied with 10% FBS (Hyclone, SH30406.05), 100 U/100ug/ml of Pen/Strep (SolarBio, P1400) and 5 μg/ml of blasticidin (GIBCO, A11139). The medium for Ca Ski cells was RPMI1640 (Hyclone, SH3080901B) supplied with 10% FBS and 100 U/100ug/ml of Pen/Strep. All cells were kept in humidified incubators with 5% CO2 at 37 °C. Culture media was changed after one day of subculturing and cells were passed again when there was 70–80% confluence. One day before the assay, the cells were trypsinized, collected, counted and viability was determined. […] The plates were kept in humidified incubators with 5% CO2 at 37 °C overnight. Compounds were prepared as a 10 point, 3x serial dilution in 100% DMSO, starting from a top concentration of 10 mM. […] At the end of the incubation the assay plate was equilibrated at room temperature for approximately 30 minutes prior to the addition of 25 uL of CellTiter-Glo® 2.0 Reagent. The assay plate was mixed for 2 minutes on an orbital shaker to induce cell lysis. Next, the plate was incubated at room temperature for 10 minutes to stabilize the luminescent signal prior to recording the luminescence on a plate reader.

Ca Ski cell line = conditions: 72 h
Method: as §2

[3] = Solubility assay (kinetic solubility, PBS pH 7); assay type: physicochemical; conditions: for solubility kinetic: pH 7, aqueous buffer, kinetic from dmso stock, read-out: Solubility
How it was run: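 Reference standards were made by diluting the 10 mM stock to 100 µM in acetonitrile:methanol:DMSO 10:80:10. Solubility in µM was calculated as the sample peak area divided by the standard peak area, multiplied by the standard concentration.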

[4] = Experimental LogD (partition coefficient); conditions: not stated, Partition Coeff LogD
HCT116 cells = test: Lactate dehydrogenase (LDH) release assay; assay type: cell-based
How it was run: as §1

in vitro = test: in vitro
How it was run: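 Azido-peptide permeability was read as loss of NanoBRET signal (donor 450 nm, acceptor 610 nm) after adding NanoBret618-azide at 10 μM final.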

[5] = Nanoclick permeability assay EC50
[6] = 0% FBS 4Hr, read-out: LDH: Cytotoxicity assay: EC50
[7] = 10% FBS 4Hr, read-out: LDH: Cytotoxicity assay: EC50

SMILES	EC50 ([1]; LDH: Cytotoxicity assay EC50)	EC50 [2]	EC50 (Ca Ski cell line)	solubility kinetic ([3]; pH 7, PBS)	logD [4]	LDH: Cytotoxicity assay: % Effect (HCT116 cells)	EC50 ([1]; LDH: Cytotoxicity assay: EC50)	cell entry EC50 (in vitro; [5])	EPSA (physchem)	LDH: Cytotoxicity assay: % Effect (HCT116 cells; 0% FBS 4Hr)	LDH: Cytotoxicity assay: % Effect (HCT116 cells; 10% FBS 4Hr)	EC50 [1, 6]	EC50 [1, 7]	cell entry EC50 (in vitro)	Solubility ([3]; pH 7, PBS)	LDH: Cytotoxicity assay: % Effect (HCT116 cells; 0% FBS 16Hr)	Solubility [3]
CC(=O)N[C@@H](CCCCN=[N+]=[N-])C(=O)NCCC(=O)N[C@@H](CC(C)C)C(=O)N[C@H](C(=O)N[C@@H](Cc1ccccc1)C(=O)N[C@]1(C)CCCCCCC=CCCC[C@@](C)(C(=O)N[C@@H](C)C(=O)N[C@@H](C)C(=O)N[C@H](C)C(=O)N[C@@H](C)C(=O)N[C@@H](C)C(=O)N[C@H](C)C(N)=O)NC(=O)[C@H](CC2CCC2)NC(=O)[C@H](CCC(N)=O)NC(=O)[C@H](C)NC(=O)[C@H](Cc2c[nH]c3ccccc23)NC(=O)[C@H](Cc2ccc(O)cc2)NC(=O)[C@H](CCC(=O)O)NC1=O)[C@@H](C)O [MP-425] (Ac-[Lys(N3)][βAla]LTF[R8]EYWAQ[Cba][S5]AA[dA]AA[dA]-NH2; staple 6-13)	> 50.7 µM	1.27 µM	47.3 µM	185 µM (≈ 401 µg/mL)													
CC(=O)N[C@@H](CCCCN=[N+]=[N-])C(=O)NCCC(=O)N[C@@H](CC(C)C)C(=O)N[C@H](C(=O)N[C@@H](Cc1ccccc1)C(=O)N[C@]1(C)CCCCCCC=CCCC[C@@](C)(C(=O)N[C@@H](CO)C(=O)N(C)[C@@H](C)C(=O)N[C@@H](C)C(N)=O)NC(=O)[C@H](CC2CCC2)NC(=O)[C@H](CCC(N)=O)NC(=O)[C@H](C)NC(=O)[C@H](Cc2c[nH]c3ccccc23)NC(=O)[C@H](Cc2ccc(O)cc2)NC(=O)[C@H](CCC(=O)O)NC1=O)[C@@H](C)O [MP-3353]				33 µM (≈ 65.5 µg/mL)	2.67	1.89%	> 50.6 µM	0.232 µM	202 A^2								
CC(=O)N[C@@H](CCCCN=[N+]=[N-])C(=O)NCCC(=O)NCC(=O)N[C@H](C(=O)N[C@@H](Cc1ccccc1)C(=O)N[C@]1(C)CCCCCCC=CCCC[C@@](C)(C(=O)N[C@@H](CO)C(=O)N[C@@H](C)C(=O)N[C@@H](C)C(N)=O)NC(=O)[C@H](CC2CCC2)NC(=O)[C@H](CCC(N)=O)NC(=O)[C@H](C)NC(=O)[C@H](Cc2c[nH]c3ccccc23)NC(=O)[C@H](Cc2ccc(O)cc2)NC(=O)[C@H](CCC(=O)O)NC1=O)[C@@H](C)O [MP-261] (Ac-[Lys(N3)][βAla]GTF[R8]EYWAQ[Cba][S5]SAA-NH2; staple 6-13)				89 µM (≈ 170 µg/mL)	2.62	8.826%	> 50.6 µM	0.273 µM	222 A^2								
CC(=O)N[C@@H](CCCCN=[N+]=[N-])C(=O)NCCC(=O)N[C@@H](CC(C)C)C(=O)N[C@H](C(=O)N[C@@H](Cc1ccccc1)C(=O)N[C@]1(C)CCCCCCC=CCCC[C@@](C)(C(=O)N[C@@H](CO)C(=O)NC(C)(C)C(=O)N[C@@H](C)C(N)=O)NC(=O)[C@H](CC2CCC2)NC(=O)[C@H](CCC(N)=O)NC(=O)[C@H](C)NC(=O)[C@H](Cc2c[nH]c3ccccc23)NC(=O)[C@H](Cc2ccc(O)cc2)NC(=O)[C@H](CCC(=O)O)NC1=O)[C@@H](C)O [MP-257] (Ac-[Lys(N3)][βAla]LTF[R8]EYWAQ[Cba][S5]S[Aib]A-NH2; staple 6-13)				25 µM (≈ 49.6 µg/mL)	2.97	-4.69%	4.55 µM	0.469 µM	210 A^2								
CC(=O)N[C@@H](CCCCN=[N+]=[N-])C(=O)NCCC(=O)N[C@@H](C)C(=O)N[C@H](C(=O)N[C@@H](Cc1ccccc1)C(=O)N[C@]1(C)CCCCCCC=CCCC[C@@](C)(C(=O)N[C@@H](CO)C(=O)N[C@@H](C)C(=O)N[C@@H](C)C(N)=O)NC(=O)[C@H](CC2CCC2)NC(=O)[C@H](C)NC(=O)[C@H](C)NC(=O)[C@H](Cc2c[nH]c3ccccc23)NC(=O)[C@H](Cc2ccc(O)cc2)NC(=O)[C@H](C)NC1=O)[C@@H](C)O [MP-209, AZIDE-ATSP-7041 (L1A, E5A, Q9A)] (Ac-[Lys(N3)][βAla]ATF[R8]AYWAA[Cba][S5]SAA-NH2; staple 6-13)				2 µM (≈ 3.63 µg/mL)	3.32				197 A^2	-1.35%	7.572%	> 50.6 µM	> 50 µM	0.906 µM			
CC(C)C[C@H](NC(=O)CCNC(=O)[C@@H](N)CCCCN=[N+]=[N-])C(=O)N[C@H](C(=O)N[C@@H](Cc1ccccc1)C(=O)N[C@]1(C)CCCCCCC=CCCC[C@@](C)(C(N)=O)NC(=O)[C@H](CC(C)C)NC(=O)[C@H](CC(C)C)NC(=O)[C@H](C)NC(=O)[C@H](Cc2c[nH]c3ccccc23)NC(=O)[C@H](Cc2ccc(O)cc2)NC(=O)[C@H](CCC(=O)O)NC1=O)[C@@H](C)O [MP-0176] (H-[Lys(N3)][βAla]LTF[R8]EYWALL[S5]-NH2; staple 6-13)					2.85	6.97%	> 50.6 µM	0.217 µM	212 A^2						Poorly Behaved		
CC(=O)N[C@@H](CCCCN=[N+]=[N-])C(=O)NCCC(=O)N[C@@H](CC(C)C)C(=O)N[C@H](C(=O)N[C@@H](Cc1ccccc1)C(=O)N[C@]1(C)CCCCCCC=CCCC[C@@](C)(C(=O)NCC(=O)N[C@@H](C)C(=O)N[C@@H](C)C(N)=O)NC(=O)[C@H](CC2CCC2)NC(=O)[C@H](CCC(N)=O)NC(=O)[C@H](C)NC(=O)[C@H](Cc2c[nH]c3ccccc23)NC(=O)[C@H](Cc2ccc(O)cc2)NC(=O)[C@H](CCC(=O)O)NC1=O)[C@@H](C)O [MP-798] (Ac-[Lys(N3)][βAla]LTF[R8]EYWAQ[Cba][S5]GAA-NH2; staple 6-13)				80 µM (≈ 155 µg/mL)	2.79				212 A^2	16.01%	16.43%	> 50.6 µM	> 50 µM	0.0829 µM		1.68%	
CC(=O)N[C@@H](CCCCN=[N+]=[N-])C(=O)NCCC(=O)N[C@@H](CC(C)C)C(=O)N[C@H](C(=O)N[C@@H](CC1CCC1)C(=O)N[C@]1(C)CCCCCCC=CCCC[C@@](C)(C(=O)N[C@@H](CO)C(=O)N[C@@H](C)C(=O)N[C@@H](C)C(N)=O)NC(=O)[C@H](Cc2c[nH]c3ccccc23)NC(=O)[C@H](CCC(N)=O)NC(=O)[C@H](C)NC(=O)[C@H](Cc2ccccc2)NC(=O)[C@H](Cc2ccc(O)cc2)NC(=O)[C@H](CCC(=O)O)NC1=O)[C@@H](C)O [MP-791] (Ac-[Lys(N3)][βAla]LT[Cba][R8]EYFAQW[S5]SAA-NH2; staple 6-13)				28 µM (≈ 55.2 µg/mL)	1.34	45.16%	34.6 µM	> 10 µM	197 A^2								
CC(C)C[C@@H]1NC(=O)[C@H](C)NC(=O)[C@H](Cc2c[nH]c3ccccc23)NC(=O)[C@H](Cc2ccc(O)cc2)NC(=O)[C@H](CCC(=O)O)NC(=O)[C@](C)(NC(=O)[C@H](Cc2ccccc2)NC(=O)[C@H](CO)NC(=O)[C@@H](NC(=O)[C@H](CO)NC(=O)CNC(=O)[C@@H](N)CCCCN=[N+]=[N-])[C@@H](C)O)CCCCCCC=CCCC[C@@](C)(C(N)=O)NC(=O)[C@H](CC(C)C)NC1=O [MP-0179]					2.57	3.75%	> 50.6 µM	0.503 µM	230 A^2						Poorly Behaved		
CC(=O)N[C@@H](CCCCN=[N+]=[N-])C(=O)NCCC(=O)N[C@@H](CC(C)C)C(=O)N[C@H](C(=O)N[C@@H](Cc1ccccc1)C(=O)N[C@]1(C)CCCCCCC=CCCC[C@@](C)(C(=O)N[C@@H](CCO)C(=O)N[C@@H](CCO)C(=O)N[C@@H](Cc2ccccc2)C(=O)N[C@@H](CCO)C(=O)N[C@@H](CCO)C(=O)N[C@@H](Cc2ccccc2)C(N)=O)NC(=O)[C@H](CC2CCC2)NC(=O)[C@H](CCC(N)=O)NC(=O)[C@H](C)NC(=O)[C@H](Cc2c[nH]c3ccccc23)NC(=O)[C@H](Cc2ccc(O)cc2)NC(=O)[C@H](CCC(=O)O)NC1=O)[C@@H](C)O [MP-802]	> 50.7 µM	4.58 µM			3.08			9.16 µM									P.B.
